Assay results from ChEMBL document CHEMBL1201862, “PubChem BioAssay data set” (2004).
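Step 1: Grow cells in 96-well plates. Step 2: Expose to compound for 48 hours at 5 concentrations. Step 3: Interpolate endpoints linearly; if unreached, use highest concentration. The concentration for 50% growth inhibition is given as GI50.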 Active and inactive are the calls of the source. Cut-off read from the data, not from the text of the source: active = GI50 up to about 1.1 µM and inactive = higher.

Key:
Assay in all cases: NCI anticancer screen, dose series, 48 h
M14 = test system: M14
UACC-62 = test system: UACC-62
SK-OV-3 = test system: SK-OV-3
SF-539 = test system: SF-539
SK-MEL-5 = test system: SK-MEL-5
OVCAR-5 = test system: OVCAR-5
NCI-H23 = test system: NCI-H23
LOX IMVI = test system: LOX IMVI
HT-29 = test system: HT-29
MDA-N = test system: MDA-N
Malme-3M = test system: Malme-3M
BT-549 = test system: BT-549
HCT-15 = test system: HCT-15
EKVX = test system: EKVX
NCI-H460 = test system: NCI-H460
UO-31 = test system: UO-31
U-251 = test system: U-251
SR = test system: SR
SF-295 = test system: SF-295
HCT-116 = test system: HCT-116
RPMI-8226 = test system: RPMI-8226
T47D = test system: T47D
Hs-578T = test system: Hs-578T
K562 = test system: K562
TK-10 = test system: TK-10
MOLT-4 = test system: MOLT-4
CCRF-CEM = test system: CCRF-CEM
MCF7 = test system: MCF7
SK-MEL-28 = test system: SK-MEL-28
HOP-92 = test system: HOP-92
CAKI-1 = test system: CAKI-1
OVCAR-4 = test system: OVCAR-4
NCI/ADR-RES = test system: NCI/ADR-RES
KM12 = test system: KM12
MDA-MB-231 = test system: MDA-MB-231
SW-620 = test system: SW-620
UACC-257 = test system: UACC-257
HCC 2998 = test system: HCC 2998
786-0 = test system: 786-0
A549 = test system: A549
ACHN = test system: ACHN
MDA-MB-435 = test system: MDA-MB-435
SN12C = test system: SN12C
NCI-H226 = test system: NCI-H226
IGROV-1 = test system: IGROV-1
DU-145 = test system: DU-145
HL-60 = test system: HL-60
RXF 393 = test system: RXF 393
SNB-75 = test system: SNB-75
OVCAR-3 = test system: OVCAR-3
OVCAR-8 = test system: OVCAR-8
NCI-H522 = test system: NCI-H522
A498 = test system: A498
HOP-62 = test system: HOP-62
SK-MEL-2 = test system: SK-MEL-2
PC-3 = test system: PC-3
COLO 205 = test system: COLO 205
SF-268 = test system: SF-268
SNB-19 = test system: SNB-19
DLD-1 = test system: DLD-1
KM-20L2 = test system: KM-20L2
DMS-114 = test system: DMS-114
HOP-18 = test system: HOP-18
LXFL 529 = test system: LXFL 529
DMS-273 = test system: DMS-273
M19-MEL = test system: M19-MEL
SNB-78 = test system: SNB-78

Measured: GI50

COc1ccc(C(=C2C(=O)N(c3ccccc3)C(=O)C2=C(C)C)c2ccc(OC)cc2)cc1
inactive: M14 2.4 µM | UACC-62 3.41 µM | SK-OV-3 4.79 µM | SF-539 2.99 µM | SK-MEL-5 4.61 µM | OVCAR-5 8.69 µM | NCI-H23 > 28 µM | LOX IMVI 3.72 µM | HT-29 2.43 µM | MDA-N 1.7 µM | Malme-3M 6.75 µM | BT-549 12.4 µM | EKVX 2.94 µM | NCI-H460 4.22 µM | UO-31 2.75 µM | U-251 3.37 µM | SF-295 3.17 µM | HCT-116 3.72 µM | RPMI-8226 4.1 µM | T47D 3.27 µM | Hs-578T 3.69 µM | K562 3.27 µM | TK-10 14 µM | MOLT-4 2.54 µM | MCF7 3.44 µM | SK-MEL-28 3.09 µM | HOP-92 10.3 µM | CAKI-1 3.66 µM | OVCAR-4 3.23 µM | NCI/ADR-RES 2.57 µM | KM12 3.53 µM | MDA-MB-231 5.09 µM | SW-620 3.19 µM | UACC-257 5.05 µM | HCC 2998 5.5 µM | 786-0 3.43 µM | A549 5.21 µM | ACHN 4.69 µM | MDA-MB-435 1.45 µM | SN12C 4.02 µM | NCI-H226 4.56 µM | IGROV-1 3.44 µM | DU-145 6.14 µM | RXF 393 2.09 µM | SNB-75 2.87 µM | OVCAR-3 3.56 µM | OVCAR-8 8.41 µM | NCI-H522 1.5 µM | A498 2.94 µM | HOP-62 9.02 µM | SK-MEL-2 3.97 µM | PC-3 4.33 µM | COLO 205 2.96 µM | SF-268 9.95 µM | SNB-19 4.07 µM
2.92 µM: HCT-15
active: SR 1.09 µM | CCRF-CEM 0.546 µM | HL-60 0.998 µM

Cc1nc2sccn2c1C(=O)NNC(N)=S
> 100 µM: HCT-15
inactive: UACC-62 > 100 µM | SK-OV-3 > 100 µM | SF-539 > 100 µM | SK-MEL-5 > 100 µM | OVCAR-5 > 100 µM | NCI-H23 > 100 µM | LOX IMVI > 100 µM | HT-29 > 100 µM | Malme-3M > 100 µM | EKVX > 100 µM | NCI-H460 > 100 µM | U-251 > 100 µM | DLD-1 > 100 µM | SR > 100 µM | KM-20L2 > 100 µM | SF-295 > 100 µM | HCT-116 > 100 µM | RPMI-8226 > 100 µM | K562 > 100 µM | TK-10 > 100 µM | MOLT-4 > 100 µM | CCRF-CEM > 100 µM | SK-MEL-28 > 100 µM | HOP-92 77.6 µM | CAKI-1 > 100 µM | DMS-114 > 100 µM | KM12 > 100 µM | HOP-18 > 100 µM | SW-620 > 100 µM | UACC-257 > 100 µM | HCC 2998 > 100 µM | 786-0 > 100 µM | A549 > 100 µM | ACHN > 100 µM | LXFL 529 > 100 µM | DMS-273 > 100 µM | SN12C > 100 µM | NCI-H226 > 100 µM | IGROV-1 > 100 µM | HL-60 > 100 µM | RXF 393 > 100 µM | OVCAR-3 > 100 µM | OVCAR-8 > 100 µM | NCI-H522 > 100 µM | HOP-62 > 100 µM | SK-MEL-2 > 100 µM | COLO 205 > 100 µM | SF-268 > 100 µM | SNB-19 > 100 µM

COc1c2c(cc3c(CCc4ccccc4)cc(=O)oc13)CCC(C)(C)O2
inactive: M14 > 100 µM | UACC-62 > 100 µM | SK-OV-3 > 100 µM | SK-MEL-5 > 100 µM | OVCAR-5 > 100 µM | NCI-H23 > 100 µM | LOX IMVI > 100 µM | HT-29 > 100 µM | Malme-3M > 100 µM | EKVX > 100 µM | NCI-H460 > 100 µM | UO-31 > 100 µM | U-251 > 100 µM | DLD-1 > 100 µM | SR > 100 µM | KM-20L2 > 100 µM | SF-295 > 100 µM | HCT-116 > 100 µM | RPMI-8226 > 100 µM | K562 > 100 µM | TK-10 > 100 µM | MOLT-4 > 100 µM | CCRF-CEM > 100 µM | SK-MEL-28 > 100 µM | HOP-92 2.34 µM | DMS-114 > 100 µM | KM12 > 100 µM | SW-620 > 100 µM | UACC-257 > 100 µM | HCC 2998 > 100 µM | ACHN > 100 µM | M19-MEL > 100 µM | LXFL 529 > 100 µM | DMS-273 > 100 µM | SN12C > 100 µM | NCI-H226 > 100 µM | IGROV-1 > 100 µM | HL-60 > 100 µM | RXF 393 > 100 µM | SNB-75 > 100 µM | OVCAR-3 > 100 µM | OVCAR-8 > 100 µM | HOP-62 > 100 µM | SK-MEL-2 > 100 µM | COLO 205 > 100 µM | SF-268 > 100 µM
> 100 µM: HCT-15

COC(=O)C(Cc1ccccc1)/N=C/c1c(O)c(O)c(C(C)C)c2cc(C)c(-c3c(C)cc4c(C(C)C)c(O)c(O)c(/C=N/C(Cc5ccccc5)C(=O)OC)c4c3O)c(O)c12 (stereo unspecified)
inactive: M14 > 10 µM | UACC-62 22.5 µM | SK-OV-3 23.7 µM | SF-539 17 µM | OVCAR-5 15.5 µM | NCI-H23 26.4 µM | HT-29 17.6 µM | Malme-3M 40.6 µM | NCI-H460 23 µM | UO-31 22.3 µM | U-251 17.3 µM | SR 2.36 µM | KM-20L2 20 µM | SF-295 15.8 µM | HCT-116 > 10 µM | RPMI-8226 22.4 µM | K562 18.7 µM | MOLT-4 2.38 µM | CCRF-CEM 7.82 µM | SK-MEL-28 28.8 µM | HOP-92 23.8 µM | DMS-114 > 10 µM | OVCAR-4 21.3 µM | KM12 16.1 µM | UACC-257 21.6 µM | ACHN 32.1 µM | M19-MEL 36.8 µM | LXFL 529 18 µM | IGROV-1 28.7 µM | HL-60 18.9 µM | RXF 393 15 µM | SNB-75 67.9 µM | OVCAR-3 17 µM | NCI-H522 21.6 µM | HOP-62 31.8 µM | SK-MEL-2 20.9 µM | COLO 205 30.3 µM | SF-268 29.5 µM | SNB-19 31.8 µM | SNB-78 6.21 µM
